Calls of active or inactive are those of the source. The rule behind the calls is not given here.
Key:
[1] = target: T1, CDK8/Cyclin C (Homo sapiens) (UniProt P49336+P24863); assay: Hydrophobic-tagging degradation activity at CDK8/Cyclin C (unknown origin) assessed as protein degradation at 0.625 to 10 uM incubated for 48 hrs by Western blotting analysis; type: protein-complex assay; details: dose 0.625-10 µM
[2] = target: T1, CDK8/Cyclin C (Homo sapiens); assay: Hydrophobic-tagging degradation activity at CDK8/Cyclin C in human MDA-MB-468 cells assessed as protein degradation at 0.38 to 12 uM incubated for 48 hrs by Western blotting analysis; type: cell-based; details: dose 0.38-12 µM
Cyclin-C = Cyclin-C (Homo sapiens, UniProt P24863); assay: PROTAC activity at Cyclin C in human MDA-MB-468 cells assessed as degradation of Cyclin C incubated for 48 hrs by Western blotting analysis; type: cell-based
Cyclin-C, sequence (P24863 whole entry): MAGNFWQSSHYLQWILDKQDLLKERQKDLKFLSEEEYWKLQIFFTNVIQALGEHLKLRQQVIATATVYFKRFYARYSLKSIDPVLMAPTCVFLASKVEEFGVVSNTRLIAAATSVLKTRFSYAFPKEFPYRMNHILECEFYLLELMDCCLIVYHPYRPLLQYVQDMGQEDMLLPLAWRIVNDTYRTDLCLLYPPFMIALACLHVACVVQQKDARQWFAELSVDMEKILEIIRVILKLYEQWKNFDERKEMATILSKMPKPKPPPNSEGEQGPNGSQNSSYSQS

[3] = target: Cyclin-dependent kinase 4 (Homo sapiens) (UniProt P11802); assay: Hydrophobic-tagging degradation activity at CDK4 in human MDA-MB-468 cells assessed as degradation of CDK4 at 0.625 to 10 uM incubated for 24 hrs by Western blotting analysis; type: cell-based; details: dose 0.625-10 µM
Cyclin-dependent kinase 4 (Homo sapiens), sequence (P11802 whole entry): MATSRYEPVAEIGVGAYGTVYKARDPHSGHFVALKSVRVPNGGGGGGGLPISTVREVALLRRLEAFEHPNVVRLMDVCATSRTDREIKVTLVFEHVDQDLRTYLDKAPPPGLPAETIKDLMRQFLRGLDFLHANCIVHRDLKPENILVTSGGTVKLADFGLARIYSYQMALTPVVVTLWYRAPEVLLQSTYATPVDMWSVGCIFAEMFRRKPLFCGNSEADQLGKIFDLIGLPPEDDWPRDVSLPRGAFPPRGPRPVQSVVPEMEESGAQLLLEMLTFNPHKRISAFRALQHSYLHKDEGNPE

[4] = target: Cyclin-dependent kinase 5 (Homo sapiens) (UniProt Q00535); assay: PROTAC activity at CDK5 in human MDA-MB-468 cells assessed as degradation of CDK5 at 0.625 to 10 uM incubated for 24 hrs by Western blotting analysis; type: cell-based; details: dose 0.625-10 µM
Cyclin-dependent kinase 5 (Homo sapiens), sequence (Q00535 whole entry, looked up): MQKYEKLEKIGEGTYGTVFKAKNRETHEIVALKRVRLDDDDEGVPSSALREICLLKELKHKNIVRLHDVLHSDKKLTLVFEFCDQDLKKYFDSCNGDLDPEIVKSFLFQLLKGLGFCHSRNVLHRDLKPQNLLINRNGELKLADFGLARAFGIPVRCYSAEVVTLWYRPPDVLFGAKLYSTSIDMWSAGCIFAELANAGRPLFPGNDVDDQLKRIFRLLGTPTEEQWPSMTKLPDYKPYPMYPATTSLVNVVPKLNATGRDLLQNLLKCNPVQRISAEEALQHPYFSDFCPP

[5] = target: Cyclin-dependent kinase 6 (Homo sapiens) (UniProt Q00534); assay: PROTAC activity at CDK6 in human MDA-MB-468 cells assessed as degradation of CDK6 at 0.625 to 10 uM incubated for 24 hrs by Western blotting analysis; type: cell-based; details: dose 0.625-10 µM
Cyclin-dependent kinase 6 (Homo sapiens), sequence (Q00534 whole entry): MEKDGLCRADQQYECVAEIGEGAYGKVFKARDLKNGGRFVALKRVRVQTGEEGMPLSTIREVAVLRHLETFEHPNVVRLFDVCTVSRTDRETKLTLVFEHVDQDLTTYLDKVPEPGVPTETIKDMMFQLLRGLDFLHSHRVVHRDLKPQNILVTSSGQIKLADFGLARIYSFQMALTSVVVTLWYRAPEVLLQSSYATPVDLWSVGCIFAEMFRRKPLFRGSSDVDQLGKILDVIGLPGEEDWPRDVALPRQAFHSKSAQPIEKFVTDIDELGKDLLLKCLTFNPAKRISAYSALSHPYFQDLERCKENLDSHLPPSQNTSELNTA

[6] = target: Cyclin-dependent kinase 12 (Homo sapiens) (UniProt Q9NYV4); assay: PROTAC activity at CDK12 in human MDA-MB-468 cells assessed as degradation of CDK12 at 0.625 to 10 uM incubated for 24 hrs by Western blotting analysis; type: cell-based; details: dose 0.625-10 µM
Cyclin-dependent kinase 12 (Homo sapiens), sequence (Q9NYV4 whole entry, looked up): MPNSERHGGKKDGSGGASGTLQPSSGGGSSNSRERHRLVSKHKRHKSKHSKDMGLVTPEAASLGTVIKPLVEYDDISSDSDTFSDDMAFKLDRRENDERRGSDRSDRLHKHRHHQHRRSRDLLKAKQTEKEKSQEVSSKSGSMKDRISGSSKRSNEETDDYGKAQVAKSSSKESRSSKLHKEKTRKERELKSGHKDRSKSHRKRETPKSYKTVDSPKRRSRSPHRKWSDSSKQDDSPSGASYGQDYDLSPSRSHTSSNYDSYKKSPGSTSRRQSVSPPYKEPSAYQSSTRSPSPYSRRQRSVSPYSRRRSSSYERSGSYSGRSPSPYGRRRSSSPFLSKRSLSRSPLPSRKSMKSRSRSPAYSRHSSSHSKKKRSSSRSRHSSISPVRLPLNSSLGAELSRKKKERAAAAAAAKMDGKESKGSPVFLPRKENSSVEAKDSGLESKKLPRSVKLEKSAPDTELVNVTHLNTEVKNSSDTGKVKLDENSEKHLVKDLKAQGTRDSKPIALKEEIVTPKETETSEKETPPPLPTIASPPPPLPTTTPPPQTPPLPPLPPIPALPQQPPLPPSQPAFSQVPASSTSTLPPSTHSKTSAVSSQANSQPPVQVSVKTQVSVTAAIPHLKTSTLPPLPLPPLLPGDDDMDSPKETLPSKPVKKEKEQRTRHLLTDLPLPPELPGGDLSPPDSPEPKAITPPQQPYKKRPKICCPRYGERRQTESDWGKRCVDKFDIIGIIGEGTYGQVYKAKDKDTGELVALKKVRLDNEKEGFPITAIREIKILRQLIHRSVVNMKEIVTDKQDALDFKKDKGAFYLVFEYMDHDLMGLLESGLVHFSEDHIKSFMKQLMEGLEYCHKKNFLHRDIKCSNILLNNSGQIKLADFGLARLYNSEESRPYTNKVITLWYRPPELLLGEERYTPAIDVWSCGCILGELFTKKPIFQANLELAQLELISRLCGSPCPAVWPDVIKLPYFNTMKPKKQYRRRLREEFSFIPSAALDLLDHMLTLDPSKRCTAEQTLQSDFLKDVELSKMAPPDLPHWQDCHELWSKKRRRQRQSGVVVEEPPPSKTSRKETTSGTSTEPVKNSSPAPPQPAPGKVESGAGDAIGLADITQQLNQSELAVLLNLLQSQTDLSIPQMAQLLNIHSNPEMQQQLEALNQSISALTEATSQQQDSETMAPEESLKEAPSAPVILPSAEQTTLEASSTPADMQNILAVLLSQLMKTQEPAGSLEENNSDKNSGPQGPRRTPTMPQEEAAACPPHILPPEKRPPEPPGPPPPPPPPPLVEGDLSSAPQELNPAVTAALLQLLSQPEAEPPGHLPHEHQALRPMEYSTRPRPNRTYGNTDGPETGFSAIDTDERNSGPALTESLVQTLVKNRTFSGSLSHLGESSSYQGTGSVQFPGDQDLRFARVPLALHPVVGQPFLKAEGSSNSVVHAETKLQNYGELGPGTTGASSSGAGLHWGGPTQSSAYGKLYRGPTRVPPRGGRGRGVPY

[7] = target: Cyclin-dependent kinase 19 (Homo sapiens) (UniProt Q9BWU1); assay: Hydrophobic-tagging degradation activity at CDK19 in human MDA-MB-468 cells assessed as degradation of CDK19 at 0.625 to 10 uM incubated for 24 hrs by Western blotting analysis; type: cell-based; details: dose 0.625-10 µM
Cyclin-dependent kinase 19 (Homo sapiens), sequence (Q9BWU1 whole entry): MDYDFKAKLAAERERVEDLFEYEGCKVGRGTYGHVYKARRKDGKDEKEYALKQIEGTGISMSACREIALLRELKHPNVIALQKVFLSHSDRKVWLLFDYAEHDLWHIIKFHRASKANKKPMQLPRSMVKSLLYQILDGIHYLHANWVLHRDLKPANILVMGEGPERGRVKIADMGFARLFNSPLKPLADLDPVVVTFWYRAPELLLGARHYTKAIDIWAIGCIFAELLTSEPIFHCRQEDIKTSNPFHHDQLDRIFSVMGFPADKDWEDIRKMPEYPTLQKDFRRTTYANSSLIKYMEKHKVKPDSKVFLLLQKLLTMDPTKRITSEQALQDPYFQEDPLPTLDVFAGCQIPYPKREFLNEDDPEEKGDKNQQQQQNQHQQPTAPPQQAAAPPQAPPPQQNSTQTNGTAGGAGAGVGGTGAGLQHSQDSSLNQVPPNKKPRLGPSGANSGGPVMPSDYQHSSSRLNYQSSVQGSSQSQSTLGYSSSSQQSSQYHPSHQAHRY

[8] = target: Cyclin-dependent kinase 1 (Homo sapiens) (UniProt P06493); assay: Hydrophobic-tagging degradation activity at CDK1 in human MDA-MB-468 cells assessed as degradation of CDK1 at 10 uM incubated for 24 hrs by Western blotting analysis; type: cell-based
Cyclin-dependent kinase 1 (Homo sapiens), sequence (P06493 whole entry, looked up): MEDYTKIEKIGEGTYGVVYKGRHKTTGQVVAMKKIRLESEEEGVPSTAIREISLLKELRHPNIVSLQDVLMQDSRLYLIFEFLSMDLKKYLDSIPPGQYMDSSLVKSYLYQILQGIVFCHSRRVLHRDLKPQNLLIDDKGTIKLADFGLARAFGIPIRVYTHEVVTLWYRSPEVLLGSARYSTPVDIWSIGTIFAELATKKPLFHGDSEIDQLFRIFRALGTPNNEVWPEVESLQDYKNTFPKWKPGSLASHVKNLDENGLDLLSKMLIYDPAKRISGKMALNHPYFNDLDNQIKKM

Cyclin-A2 (Homo sapiens) = Cyclin-A2 (Homo sapiens) (UniProt P20248); assay: PROTAC activity at Cyclin A2 in human MDA-MB-468 cells assessed as degradation of Cyclin A2 at 0.625 to 10 uM incubated for 24 hrs by Western blotting analysis; type: cell-based; details: dose 0.625-10 µM
[9] = target: G2/mitotic-specific cyclin-B1 (Homo sapiens) (UniProt P14635); assay: PROTAC activity at Cyclin B1 in human MDA-MB-468 cells assessed as degradation of Cyclin B1 at 0.625 to 10 uM incubated for 24 hrs by Western blotting analysis; type: cell-based; details: dose 0.625-10 µM
G2/mitotic-specific cyclin-B1 (Homo sapiens), sequence (P14635 whole entry): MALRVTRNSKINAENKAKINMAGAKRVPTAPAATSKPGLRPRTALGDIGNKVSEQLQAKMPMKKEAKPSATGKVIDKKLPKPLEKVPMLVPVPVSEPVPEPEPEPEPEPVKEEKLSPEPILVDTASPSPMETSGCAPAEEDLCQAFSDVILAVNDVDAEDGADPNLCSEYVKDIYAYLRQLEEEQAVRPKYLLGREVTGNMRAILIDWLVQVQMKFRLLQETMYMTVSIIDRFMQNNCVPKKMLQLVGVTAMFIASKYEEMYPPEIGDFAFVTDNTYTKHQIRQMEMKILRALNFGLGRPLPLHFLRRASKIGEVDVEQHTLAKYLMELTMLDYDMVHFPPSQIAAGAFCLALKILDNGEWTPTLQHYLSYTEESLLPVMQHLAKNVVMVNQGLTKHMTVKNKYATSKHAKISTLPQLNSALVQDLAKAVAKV

Cyclin-H (Homo sapiens) = Cyclin-H (Homo sapiens) (UniProt P51946); assay: PROTAC activity at Cyclin H in human MDA-MB-468 cells assessed as degradation of Cyclin H at 0.625 to 10 uM incubated for 24 hrs by Western blotting analysis; type: cell-based; details: dose 0.625-10 µM
Cyclin-H (Homo sapiens), sequence (P51946 whole entry): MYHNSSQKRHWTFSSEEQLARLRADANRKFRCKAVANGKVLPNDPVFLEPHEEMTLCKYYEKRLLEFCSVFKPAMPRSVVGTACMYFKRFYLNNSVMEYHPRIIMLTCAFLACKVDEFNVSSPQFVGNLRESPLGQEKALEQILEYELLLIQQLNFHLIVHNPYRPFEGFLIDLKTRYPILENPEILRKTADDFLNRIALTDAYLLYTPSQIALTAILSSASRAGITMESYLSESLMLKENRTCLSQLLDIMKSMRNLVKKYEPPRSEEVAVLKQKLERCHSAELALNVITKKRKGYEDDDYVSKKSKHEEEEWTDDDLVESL

Cyclin-T1 (Homo sapiens) = Cyclin-T1 (Homo sapiens) (UniProt O60563); assay: PROTAC activity at Cyclin T1 in human MDA-MB-468 cells assessed as degradation of Cyclin T1 at 0.625 to 10 uM incubated for 24 hrs by Western blotting analysis; type: cell-based; details: dose 0.625-10 µM
[10] = target: Cyclin-dependent kinase 19 (Homo sapiens) (UniProt Q9BWU1); assay: Hydrophobic-tagging degradation activity at CDK19 in human MDA-MB-468 cells assessed as degradation of CDK19 protein at 5 uM incubated for 12 hrs by DIA-based proteomic analysis; type: cell-based
[11] = target: T1, CDK8/Cyclin C (Homo sapiens); assay: Hydrophobic-tagging degradation activity at CDK8/Cyclin C in human MDA-MB-468 cells assessed as protein degradation at 1.1 to 10 uM incubated for 24 hrs in presence of MG132 by Western blotting analysis; type: cell-based; details: dose 1.1-10 µM
[12] = target: T1, CDK8/Cyclin C (Homo sapiens); assay: Hydrophobic-tagging degradation activity at CDK8/Cyclin C in human MDA-MB-468 cells assessed as effect on mRNA expression level at 1.1 to 10 uM by […] analysis; type: cell-based; details: dose 1.1-10 µM
MDA-MB-231 = assay: Antiproliferative activity against human MDA-MB-231 cells assessed as reduction in cell viability incubated for 4 days by Celltiter glo luminescent assay; type: functional, cell-based; details: time 4.0 day
HCT-116 = assay: Antiproliferative activity against human HCT-116 cells assessed as reduction in cell viability incubated for 4 days by Celltiter glo luminescent assay; type: functional, cell-based; details: time 4.0 day
MDA-MB-468 [13] = assay: Antiproliferative activity against human MDA-MB-468 cells assessed as reduction in cell growth at 5 to 20 uM measured upto 5 days by Celltiter glo luminescent assay; type: functional, cell-based; details: dose 5-20 µM, time <= 5.0 day
MDA-MB-468 [14] = assay: Inhibition of colony formation in human MDA-MB-468 cells assessed as reduction in cell colony number at 1.25 to 20 uM incubated for 3 days by crystal violet staining based assay; type: functional; details: dose 1.25-20 µM, time 3.0 day
MDA-MB-468 [15] = assay: Inhibition of colony formation in human MDA-MB-468 cells assessed as reduction in cell colony size at 1.25 to 20 uM incubated for 3 days by crystal violet staining based assay; type: functional; details: dose 1.25-20 µM, time 3.0 day
[16] = target: T1, CDK8/Cyclin C (Homo sapiens); assay: Hydrophobic-tagging degradation activity at CDK8/Cyclin C in human MDA-MB-468 cells assessed as downregulation of C-terminal RNA polymerase II phosphorylation at serine 5 at 2 to 8 uM incubated for 24 hrs by Western blotting analysis; type: cell-based; details: dose 2-8 µM
[17] = target: T1, CDK8/Cyclin C (Homo sapiens); assay: Hydrophobic-tagging degradation activity at CDK8/Cyclin C in human MDA-MB-468 cells assessed as downregulation of Rb phosphorylation at 2 to 8 uM incubated for 24 hrs by Western blotting analysis; type: cell-based; details: dose 2-8 µM
[18] = target: T1, CDK8/Cyclin C (Homo sapiens); assay: Hydrophobic-tagging degradation activity at CDK8/Cyclin C in human MDA-MB-468 cells assessed as downregulation of STAT1 phosphorylation at Ser727 residue at 2 to 8 uM incubated for 24 hrs by Western blotting analysis; type: cell-based; details: dose 2-8 µM
[19] = target: T1, CDK8/Cyclin C (Homo sapiens); assay: Hydrophobic-tagging degradation activity at CDK8/Cyclin C in human MDA-MB-468 cells assessed as downregulation of […] phosphorylation at Tyr701 residue at 2 to 8 uM incubated for 24 hrs by Western blotting analysis; type: cell-based; details: dose 2-8 µM
[20] = target: T1, CDK8/Cyclin C (Homo sapiens); assay: Hydrophobic-tagging degradation activity at CDK8/Cyclin C in human MDA-MB-468 cells assessed as downregulation of E2F gene expression level at 4 uM incubated for 24 hrs by qPT-PCR analysis; type: cell-based
[21] = target: T2, Cyclin-dependent kinase 8 (Homo sapiens, UniProt P49336); assay: Hydrophobic-tagging degradation activity at CDK8 in human MDA-MB-468 cells assessed as downregulation of EAPP protein expression at 5 uM incubated for 12 hrs by DIA-based proteomic analysis; type: cell-based
T2 sequence (P49336 whole entry): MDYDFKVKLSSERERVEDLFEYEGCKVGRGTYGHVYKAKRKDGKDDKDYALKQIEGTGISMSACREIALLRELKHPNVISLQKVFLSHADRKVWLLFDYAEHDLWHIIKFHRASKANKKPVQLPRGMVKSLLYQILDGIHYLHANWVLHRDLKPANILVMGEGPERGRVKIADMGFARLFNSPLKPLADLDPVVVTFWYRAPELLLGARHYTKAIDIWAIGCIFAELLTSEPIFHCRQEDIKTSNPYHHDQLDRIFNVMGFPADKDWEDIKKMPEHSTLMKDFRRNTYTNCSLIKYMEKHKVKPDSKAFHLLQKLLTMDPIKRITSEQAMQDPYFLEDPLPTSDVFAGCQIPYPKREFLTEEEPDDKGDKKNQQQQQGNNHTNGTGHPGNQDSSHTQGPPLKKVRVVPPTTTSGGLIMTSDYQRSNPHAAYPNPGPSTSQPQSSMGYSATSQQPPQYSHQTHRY

[22] = target: T2, Cyclin-dependent kinase 8; assay: Hydrophobic-tagging degradation activity at CDK8 in human MDA-MB-468 cells assessed as downregulation of SMAD2 protein expression at 5 uM incubated for 12 hrs by DIA-based proteomic analysis; type: cell-based

## O=C(Cn1cc(-c2ccc(-c3cncc4ccccc34)cc2)cn1)N1CCN(CCCC23CC4CC(CC(C4)C2)C3)CC1
[1]
  Activity: Active
[2]
  Activity: Dose-Dependent Effect
Cyclin-C
  DC50: 2640 nM
[3]
  Activity: inactive
[4]
  Activity: inactive
[5]
  Activity: inactive
[6]
  Activity: inactive
[7]
  Activity: inactive
[8]
  Activity: Active
Cyclin-A2 (Homo sapiens)
  Activity: inactive
[9]
  Activity: inactive
Cyclin-H (Homo sapiens)
  Activity: inactive
Cyclin-T1 (Homo sapiens)
  Activity: inactive
[10]
  Activity: inactive
[11]
  Activity: inactive
[12]
  Activity: inactive
MDA-MB-231
  Activity: Active
HCT-116
  Activity: Active
MDA-MB-468 [13]
  Activity: Active
MDA-MB-468 [14]
  inhibition: Active
MDA-MB-468 [15]
  inhibition: Active
[16]
  Activity: Dose-Dependent Effect
[17]
  Activity: Active
[18]
  Activity: Active
[19]
  Activity: inactive
[20]
  Activity: Active
[21]
  Activity: Active
[22]
  Activity: Active
